The results in this text go back to article PMC6934184, “Selective DNA-PKcs inhibition extends the therapeutic index of localized radiotherapy and chemotherapy” (The Journal of Clinical Investigation, 2019).

In this experiment the target is T1, MYO3B (MYO3 beta) (Homo sapiens, UniProt Q8WXR4).
T1 construct: purchased Thermo Fisher Scientific (Life Technologies) SelectScreen
As to the kind of experiment: SelectScreen LanthaScreen. The format is binding. Particulars: read-out: % displacement. The method, boiled down:
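SelectScreen broad panel; activity (Z'LYTE, Adapta) plus binding formats. ATP: Km app for CSF1R Z'LYTE; 10 for CAMK1 Adapta. Readout = % per kinase.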

T1 sequence (Q8WXR4 whole entry): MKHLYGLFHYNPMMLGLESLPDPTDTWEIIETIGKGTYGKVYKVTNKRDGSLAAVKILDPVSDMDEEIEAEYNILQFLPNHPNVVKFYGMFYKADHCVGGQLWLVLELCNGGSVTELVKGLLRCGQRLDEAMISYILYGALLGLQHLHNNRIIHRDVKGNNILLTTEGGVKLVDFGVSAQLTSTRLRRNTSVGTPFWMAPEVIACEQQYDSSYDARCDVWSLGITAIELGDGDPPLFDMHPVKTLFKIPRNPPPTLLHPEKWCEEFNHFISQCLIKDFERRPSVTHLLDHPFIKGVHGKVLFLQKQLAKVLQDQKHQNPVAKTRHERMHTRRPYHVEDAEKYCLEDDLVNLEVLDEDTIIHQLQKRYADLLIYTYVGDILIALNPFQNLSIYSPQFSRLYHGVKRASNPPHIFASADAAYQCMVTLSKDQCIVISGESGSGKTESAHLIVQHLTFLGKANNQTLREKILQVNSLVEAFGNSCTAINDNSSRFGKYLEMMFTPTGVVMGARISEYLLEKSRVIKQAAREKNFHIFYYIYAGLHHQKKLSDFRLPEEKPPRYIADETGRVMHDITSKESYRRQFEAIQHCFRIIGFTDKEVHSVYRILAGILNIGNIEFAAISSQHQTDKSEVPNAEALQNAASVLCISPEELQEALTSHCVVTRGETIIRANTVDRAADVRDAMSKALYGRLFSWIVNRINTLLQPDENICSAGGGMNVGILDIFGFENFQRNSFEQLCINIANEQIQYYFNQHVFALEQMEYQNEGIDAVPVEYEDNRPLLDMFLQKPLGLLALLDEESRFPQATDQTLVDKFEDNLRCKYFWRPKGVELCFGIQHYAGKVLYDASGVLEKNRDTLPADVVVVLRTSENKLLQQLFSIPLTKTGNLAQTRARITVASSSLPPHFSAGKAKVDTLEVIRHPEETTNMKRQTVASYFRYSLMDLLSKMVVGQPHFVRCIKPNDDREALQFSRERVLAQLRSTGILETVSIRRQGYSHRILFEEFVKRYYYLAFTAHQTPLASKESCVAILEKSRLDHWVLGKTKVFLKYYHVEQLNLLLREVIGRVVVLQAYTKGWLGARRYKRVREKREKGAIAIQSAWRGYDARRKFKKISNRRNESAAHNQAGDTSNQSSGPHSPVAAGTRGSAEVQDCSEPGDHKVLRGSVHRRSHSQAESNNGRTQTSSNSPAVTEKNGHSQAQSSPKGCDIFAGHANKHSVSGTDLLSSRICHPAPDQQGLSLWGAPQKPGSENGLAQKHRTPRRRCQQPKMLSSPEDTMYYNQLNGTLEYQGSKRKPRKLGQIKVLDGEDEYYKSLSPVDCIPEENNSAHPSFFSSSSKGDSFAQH

As to `CN(C(=O)CN1CCOCC1)c1ccc2sc3c(-c4cccc5c(=O)cc(N6CC7CCC(C6)O7)oc45)cccc3c2c1` [NU5455], the inhibition at 1 µM was found to be 2.3%.
